Data published in patent US11753397B2, “Cereblon binders for the degradation of ikaros” (C4 Therapeutics, Inc., priority 2018, dated 2023).
Where a name gives a salt, the structure may show the parent alone.

Tested on: NCIH929.1 cells
Assay: Cell viability assay (CellTiter-Glo 2.0, ATP quantification)
Assay type: cell-based
Settings: NCIH929.1 cell viability, CellTiter-Glo 2.0, 96 hr incubation, top concentration 1 μM
Procedure, shortened: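 Cells seeded at 750/well in RPMI with 10% FBS and 0.05 mM 2-mercaptoethanol, exposed 96 h at 37 °C to 10-point half-log dilutions in duplicate, top 1 μM. Viability by CellTiter-Glo 2.0 ATP luminescence, with a day-0 read as cytostatic baseline (CT0).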

Structure (SMILES)	GI50
O=C1CCC(N2C(=O)c3cccc(NCc4cnn(CC(F)(F)F)c4)c3C2=O)C(=O)N1 (centres unmarked) [Compound 153, 2-(2,6-dioxo-3-piperidyl)-4-[[1-(2,2,2-trifluoroethyl)pyrazol-4-yl]methylamino]isoindoline-1,3-dione]	< 100 nM
CN(CCCn1cc(CNc2cccc3c2C(=O)N(C2CCC(=O)NC2=O)C3=O)cn1)C(=O)OC(C)(C)C (centres unmarked) [Compound 154, tert-butyl N-[3-[4-[[[2-(2,6-dioxo-3-piperidyl)-1,3-dioxo-isoindolin-4-yl]amino]methyl]pyrazol-1-yl]propyl]-N-methyl-carbamate]	< 100 nM
O=C1CCC(N2C(=O)c3cccc(NCc4cnn(CC5CCOCC5)c4)c3C2=O)C(=O)N1 (centres unmarked) [Compound 155, 2-(2,6-dioxo-3-piperidyl)-4-[[1-(tetrahydropyran-4-ylmethyl)pyrazol-4-yl]methylamino]isoindoline-1,3-dione]	< 100 nM
CC(=O)N1C2CCC1CC(n1cc(CNc3cccc4c3C(=O)N(C3CCC(=O)NC3=O)C4=O)cn1)C2 (centres unmarked) [Compound 156, 4-[[1-(8-acetyl-8-azabicyclo[3.2.1]octan-3-yl)pyrazol-4-yl]methylamino]-2-(2,6-dioxo-3-piperidyl)isoindoline-1,3-dione]	< 100 nM
CN1CCC(n2cc(CNc3cccc4c3C(=O)N(C3CCC(=O)NC3=O)C4=O)cn2)CC1 (centres unmarked) [Compound 157, 2-(2,6-dioxo-3-piperidyl)-4-[[1-(1-methyl-4-piperidyl)pyrazol-4-yl]methylamino]isoindoline-1,3-dione]	< 100 nM
O=C1CCC(N2C(=O)c3cccc(NCc4cnn(C5CCCCC5)c4)c3C2=O)C(=O)N1 (centres unmarked) [Compound 158, 4-[(1-cyclohexylpyrazol-4-yl)methylamino]-2-(2,6-dioxo-3-piperidyl)isoindoline-1,3-dione]	< 100 nM
CC(=O)N1CCC(n2cc(CNc3cccc4c3C(=O)N(C3CCC(=O)NC3=O)C4=O)cn2)CC1 (centres unmarked) [Compound 159, 4-[[1-(1-acetyl-4-piperidyl)pyrazol-4-yl]methylamino]-2-(2,6-dioxo-3-piperidyl)isoindoline-1,3-dione]	< 100 nM
O=C1CCC(N2C(=O)c3cccc(NCc4cnn(C5CCN(CC(F)(F)F)CC5)c4)c3C2=O)C(=O)N1 (centres unmarked) [Compound 160, 2-(2,6-Dioxo-piperidin-3-yl)-4-({1-[1-(2,2,2-trifluoro-ethyl)-piperidin-4-yl]-1H-pyrazol-4-ylmethyl}-amino)-isoindole-1,3-dione]	< 100 nM
CC(C)(C)NC(=O)N1CCC(n2cc(CNc3cccc4c3C(=O)N(C3CCC(=O)NC3=O)C4=O)cn2)CC1 (centres unmarked) [Compound 161, 4-(4-{[2-(2,6-Dioxo-piperidin-3-yl)-1,3-dioxo-2,3-dihydro-1H-isoindol-4-ylamino]-methyl}-pyrazol-1-yl)-piperidine-1-carboxylic acid tert-butylamide]	< 100 nM
O=C1CCC(N2C(=O)c3cccc(NCc4cnn(C5CC5)c4)c3C2=O)C(=O)N1 (centres unmarked) [Compound 163, 4-[(1-Cyclopropyl-1H-pyrazol-4-ylmethyl)-amino]-2-(2,6-dioxo-piperidin-3-yl)-isoindole-1,3-dione]	< 100 nM
O=C1CCC(N2C(=O)c3cccc(NCc4cnn(C5CCN(C(=O)OCC(F)(F)F)CC5)c4)c3C2=O)C(=O)N1 (centres unmarked) [Compound 165, 4-(4-{[2-(2,6-Dioxo-piperidin-3-yl)-1,3-dioxo-2,3-dihydro-1H-isoindol-4-ylamino]-methyl}-pyrazol-1-yl)-piperidine-1-carboxylic acid 2,2,2-trifluoro-ethyl ester]	< 100 nM
CC(C)(C)OC(=O)N1C2CCC1CC(n1cc(CNc3cccc4c3C(=O)N(C3CCC(=O)NC3=O)C4=O)cn1)C2 (centres unmarked) [Compound 166, tert-Butyl 3-(4-(((2-(2,6-dioxopiperidin-3-yl)-1,3-dioxoisoindolin-4-yl)amino)methyl)-1H-pyrazol-1-yl)-8-azabicyclo[3.2.1]octane-8-carboxylate]	< 100 nM
CC(C)(C)OC(=O)N1CC2(CC(n3cc(CNc4cccc5c4C(=O)N(C4CCC(=O)NC4=O)C5=O)cn3)C2)C1 (centres unmarked) [Compound 167, tert-Butyl 6-(4-(((2-(2,6-dioxopiperidin-3-yl)-1,3-dioxoisoindolin-4-yl)amino)methyl)-1H-pyrazol-1-yl)-2-azaspiro[3.3]heptane-2-carboxylate]	< 100 nM
CC1CC(n2cc(CNc3cccc4c3C(=O)N(C3CCC(=O)NC3=O)C4=O)cn2)CC(C)N1C(=O)OC(C)(C)C (centres unmarked) [Compound 168, tert-Butyl 4-(4-(((2-(2,6-dioxopiperidin-3-yl)-1,3-dioxoisoindolin-4-yl)amino)methyl)-1H-pyrazol-1-yl)-2,6-dimethylpiperidine-1-carboxylate]	< 100 nM
CC(C)(C)OC(=O)N1CCC(n2cc(CNc3cccc4c3C(=O)N(C3CCC(=O)NC3=O)C4=O)cn2)CC1(C)C (centres unmarked) [Compound 169, tert-Butyl 4-(4-(((2-(2,6-dioxopiperidin-3-yl)-1,3-dioxoisoindolin-4-yl)amino)methyl)-1H-pyrazol-1-yl)-2,2-dimethylpiperidine-1-carboxylate]	< 1 nM
O=C1CCC(N2C(=O)c3cccc(NCc4cnn([C@H]5CC[C@H](C(=O)N6CCCCC6)CC5)c4)c3C2=O)C(=O)N1 (some centres unmarked) [Compound 170, 2-(2,6-Dioxopiperidin-3-yl)-4-(((1-((1r,4r)-4-(piperidine-1-carbonyl)cyclohexyl)-1H-pyrazol-4-yl)methyl)amino)isoindoline-1,3-dione]	< 100 nM
Cc1nn(C2CCN(C(=O)C3(C)CCC3)CC2)c(C)c1CNc1cccc2c1C(=O)N(C1CCC(=O)NC1=O)C2=O (centres unmarked) [Compound 171, 4-(((3,5-Dimethyl-1-(1-(1-methylcyclobutane-1-carbonyl)piperidin-4-yl)-1H-pyrazol-4-yl)methyl)amino)-2-(2,6-dioxopiperidin-3-yl)isoindoline-1,3-dione]	< 100 nM
CC1(C(=O)N2CCC(c3ccccc3)(n3cc(CNc4cccc5c4C(=O)N(C4CCC(=O)NC4=O)C5=O)cn3)CC2)CCC1 (centres unmarked) [Compound 172, 2-(2,6-Dioxopiperidin-3-yl)-4-(((1-(1-(1-methylcyclobutane-1-carbonyl)-4-phenylpiperidin-4-yl)-1H-pyrazol-4-yl)methyl)amino)isoindoline-1,3-dione]	< 100 nM
CC1(C(=O)N2CCC(C)(n3cc(CNc4cccc5c4C(=O)N(C4CCC(=O)NC4=O)C5=O)cn3)CC2)CCC1 (centres unmarked) [Compound 173, 2-(2,6-Dioxopiperidin-3-yl)-4-(((1-(4-methyl-1-(1-methylcyclobutane-1-carbonyl)piperidin-4-yl)-1H-pyrazol-4-yl)methyl)amino)isoindoline-1,3-dione]	< 100 nM
CC(Nc1cccc2c1C(=O)N(C1CCC(=O)NC1=O)C2=O)c1cnn(C2CCN(C(=O)OC(C)(C)C)CC2)c1 (centres unmarked) [Compound 174, tert-Butyl 4-(4-(1-((2-(2,6-dioxopiperidin-3-yl)-1,3-dioxoisoindolin-4-yl)amino)ethyl)-1H-pyrazol-1-yl)piperidine-1-carboxylate]	< 100 nM
NC1(C(=O)N2CCC(n3cc(CNc4cccc5c4C(=O)N(C4CCC(=O)NC4=O)C5=O)cn3)CC2)CCC1 (centres unmarked) [Compound 175, 4-[[1-[1-(1-aminocyclobutanecarbonyl)-4-piperidyl]pyrazol-4-yl]methylamino]-2-(2,6-dioxo-3-piperidyl)isoindoline-1,3-dione hydrochloride]	< 100 nM
CC(C)(C)OC(=O)N1CCC(n2cc(CNc3cccc4c3C(=O)N(C3CCC(=O)NC3=O)C4=O)cn2)C(F)(F)C1 (centres unmarked) [Compound 176, tert-Butyl 4-(4-(((2-(2,6-dioxopiperidin-3-yl)-1,3-dioxoisoindolin-4-yl)amino)methyl)-1H-pyrazol-1-yl)-3,3-difluoropiperidine-1-carboxylate]	< 100 nM
O=C1CCC(N2C(=O)c3cccc(NCc4cnn(C5CCC(CC6CCCCC6)CC5)c4)c3C2=O)C(=O)N1 (centres unmarked) [Compound 177, 4-(((1-(4-(Cyclohexylmethyl)cyclohexyl)-1H-pyrazol-4-yl)methyl)amino)-2-(2,6-dioxopiperidin-3-yl)isoindoline-1,3-dione]	< 100 nM
CN(C(=O)N1CCC(n2cc(CNc3cccc4c3C(=O)N(C3CCC(=O)NC3=O)C4=O)cn2)CC1)C(C)(C)C (centres unmarked) [Compound 178, N-(tert-Butyl)-4-(4-(((2-(2,6-dioxopiperidin-3-yl)-1,3-dioxoisoindolin-4-yl)amino)methyl)-1H-pyrazol-1-yl)-N-methylpiperidine-1-carboxamide]	< 100 nM
CC1(C(=O)N2CCC(n3cc(CNc4cccc5c4C(=O)N(C4CCC(=O)NC4=O)C5=O)c(N)n3)CC2)CCC1 (centres unmarked) [Compound 179, 4-(((3-Amino-1-(1-(1-methylcyclobutane-1-carbonyl)piperidin-4-yl)-1H-pyrazol-4-yl)methyl)amino)-2-(2,6-dioxopiperidin-3-yl)isoindoline-1,3-dione]	< 100 nM
CC(C)Oc1cc(C2CC2)cc(-n2cc(CNc3cccc4c3C(=O)N(C3CCC(=O)NC3=O)C4=O)cn2)c1 (centres unmarked) [Compound 180, 4-{[1-(3-Cyclopropyl-5-isopropoxy-phenyl)-1H-pyrazol-4-ylmethyl]-amino}-2-(2,6-dioxo-piperidin-3-yl)-isoindole-1,3-dione]	< 100 nM
O=C1CCC(N2C(=O)c3cccc(NCc4cnn(C5CN(c6ccccc6)C5)c4)c3C2=O)C(=O)N1 (centres unmarked) [Compound 181, 2-(2,6-Dioxo-piperidin-3-yl)-4-{[1-(1-phenyl-azetidin-3-yl)-1H-pyrazol-4-ylmethyl]-amino}-isoindole-1,3-Dione]	< 100 nM
CC(C)(C)OC(=O)CN1CC(n2cc(CNc3cccc4c3C(=O)N(C3CCC(=O)NC3=O)C4=O)cn2)C1 (centres unmarked) [Compound 184, tert-butyl 2-(3-(4-(((2-(2,6-Dioxopiperidin-3-yl)-1,3-dioxoisoindolin-4-yl)amino)methyl)-1H-pyrazol-1-yl)azetidin-1-yl)acetate]	< 100 nM
CN(C)CCC(Nc1cccc2c1C(=O)N(C1CCC(=O)NC1=O)C2=O)c1cnn(C2CCN(C(=O)OC(C)(C)C)CC2)c1 (centres unmarked) [Compound 187, tert-Butyl 4-(4-(3-(dimethylamino)-1-((2-(2,6-dioxopiperidin-3-yl)-1,3-dioxoisoindolin-4-yl)amino)propyl)-1H-pyrazol-1-yl)piperidine-1-carboxylate]	> 100 nM
